Assay results from the kinase profiling compilation of Christmann-Franck et al. (2016).

Legend:
Assay in all cases: KINOMEscan competition binding
[1] = target: ABL1 (human), P00519 [E255K]
[2] = target: ABL1 (human), P00519 [F317L]
[3] = target: AKT2 (human) (UniProt P31751)
[4] = target: BRAF (human), P15056 [V600E]
[5] = target: CAMKK1 (human) (UniProt Q8N5S9)
[6] = target: CDK15 (human) (UniProt Q96Q40)
[7] = target: CDK18 (human) (UniProt Q07002)
[8] = target: CDKL2 (human) (UniProt Q92772)
[9] = target: CHEK2 (human) (UniProt O96017)
[10] = target: CLK4 (human) (UniProt Q9HAZ1)
[11] = target: DYRK2 (human) (UniProt Q92630)
[12] = target: EPHA1 (human) (UniProt P21709)
[13] = target: EPHA7 (human) (UniProt Q15375)
[14] = target: EPHB1 (human) (UniProt P54762)
[15] = target: EPHB4 (human) (UniProt P54760)
[16] = target: EPHB6 (human) (UniProt O15197)
[17] = target: FES (human) (UniProt P07332)
[18] = target: FLT3 (human) (UniProt P36888)
[19] = target: HIPK4 (human) (UniProt Q8NE63)
[20] = target: INSRR (human) (UniProt P14616)
[21] = target: JAK2 JH1 catalytic (human) (UniProt O60674)
[22] = target: MAP2K4 (human) (UniProt P45985)
[23] = target: MAPK13 (human) (UniProt O15264)
[24] = target: MYLK (human) (UniProt Q15746)
[25] = target: MYO3B (human) (UniProt Q8WXR4)
[26] = target: PIK3CA (human), P42336 [E542K]
[27] = target: PIK3CA (human), P42336 [E545K]
[28] = target: PIK3CA (human), P42336 [Q546K]
[29] = target: PIM1 (human) (UniProt P11309)
[30] = target: PIM2 (human) (UniProt Q9P1W9)
[31] = target: PRKACB (human) (UniProt P22694)
[32] = target: PTK2 (human) (UniProt Q05397)
[33] = target: ROCK2 (human) (UniProt O75116)
[34] = target: RPS6KA4 KD1 (human) (UniProt O75676)
[35] = target: STK39 (human) (UniProt Q9UEW8)
[36] = target: TAOK1 (human) (UniProt Q7L7X3)
[37] = target: TAOK2 (human) (UniProt Q9UL54)
[38] = target: TNIK (human) (UniProt Q9UKE5)
[39] = target: TNNI3K (human) (UniProt Q59H18)
[40] = target: YSK4 (human) (UniProt Q56UN5)

PIK3CA (human), P42336 [Q546K], sequence (P42336 whole entry Q546K, looked up): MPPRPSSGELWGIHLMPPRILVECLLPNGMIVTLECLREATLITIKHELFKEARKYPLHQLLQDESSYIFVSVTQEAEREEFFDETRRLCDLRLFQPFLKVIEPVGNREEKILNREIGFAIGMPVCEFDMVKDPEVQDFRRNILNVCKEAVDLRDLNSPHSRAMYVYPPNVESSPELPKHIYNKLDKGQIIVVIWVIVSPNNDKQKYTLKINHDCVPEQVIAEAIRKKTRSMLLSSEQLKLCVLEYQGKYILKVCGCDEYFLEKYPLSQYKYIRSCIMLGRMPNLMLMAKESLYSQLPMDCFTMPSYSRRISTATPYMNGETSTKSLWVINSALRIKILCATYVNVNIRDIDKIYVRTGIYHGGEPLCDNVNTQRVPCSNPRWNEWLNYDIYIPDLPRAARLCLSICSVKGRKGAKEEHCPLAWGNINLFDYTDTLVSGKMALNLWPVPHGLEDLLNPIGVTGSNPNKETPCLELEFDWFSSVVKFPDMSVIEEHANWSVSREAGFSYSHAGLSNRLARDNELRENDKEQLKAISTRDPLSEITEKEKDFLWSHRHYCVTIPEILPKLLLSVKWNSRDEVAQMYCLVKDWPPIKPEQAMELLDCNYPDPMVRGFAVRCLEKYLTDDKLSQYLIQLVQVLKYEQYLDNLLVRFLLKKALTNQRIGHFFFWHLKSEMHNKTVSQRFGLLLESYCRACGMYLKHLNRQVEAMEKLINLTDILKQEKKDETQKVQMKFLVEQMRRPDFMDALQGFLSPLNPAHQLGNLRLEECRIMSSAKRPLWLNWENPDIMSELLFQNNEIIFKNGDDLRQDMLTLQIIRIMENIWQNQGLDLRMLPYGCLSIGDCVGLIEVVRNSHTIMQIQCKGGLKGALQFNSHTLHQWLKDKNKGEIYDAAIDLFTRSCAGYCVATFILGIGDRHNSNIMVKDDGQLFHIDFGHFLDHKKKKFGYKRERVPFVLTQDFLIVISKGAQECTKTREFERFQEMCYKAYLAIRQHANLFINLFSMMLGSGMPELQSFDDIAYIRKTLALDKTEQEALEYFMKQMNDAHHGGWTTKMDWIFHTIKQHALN
HIPK4 (human), sequence (Q8NE63 whole entry, looked up): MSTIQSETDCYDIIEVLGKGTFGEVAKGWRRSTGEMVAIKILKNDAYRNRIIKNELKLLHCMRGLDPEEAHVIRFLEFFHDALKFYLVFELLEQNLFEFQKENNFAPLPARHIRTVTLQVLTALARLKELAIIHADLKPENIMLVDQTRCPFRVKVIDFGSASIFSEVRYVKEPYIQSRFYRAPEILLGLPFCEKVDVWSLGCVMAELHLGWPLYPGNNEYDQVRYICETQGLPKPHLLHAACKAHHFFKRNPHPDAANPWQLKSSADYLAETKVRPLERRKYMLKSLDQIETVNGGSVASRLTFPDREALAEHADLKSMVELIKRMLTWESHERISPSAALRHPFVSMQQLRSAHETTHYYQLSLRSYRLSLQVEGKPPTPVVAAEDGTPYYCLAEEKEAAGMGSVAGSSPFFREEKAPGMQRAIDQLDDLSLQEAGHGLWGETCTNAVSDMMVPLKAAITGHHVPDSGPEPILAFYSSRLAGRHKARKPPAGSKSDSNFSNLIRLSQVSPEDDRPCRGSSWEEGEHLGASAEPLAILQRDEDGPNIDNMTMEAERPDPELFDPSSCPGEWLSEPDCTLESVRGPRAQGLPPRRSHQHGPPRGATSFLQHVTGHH
MAPK13 (human), sequence (O15264 whole entry, looked up): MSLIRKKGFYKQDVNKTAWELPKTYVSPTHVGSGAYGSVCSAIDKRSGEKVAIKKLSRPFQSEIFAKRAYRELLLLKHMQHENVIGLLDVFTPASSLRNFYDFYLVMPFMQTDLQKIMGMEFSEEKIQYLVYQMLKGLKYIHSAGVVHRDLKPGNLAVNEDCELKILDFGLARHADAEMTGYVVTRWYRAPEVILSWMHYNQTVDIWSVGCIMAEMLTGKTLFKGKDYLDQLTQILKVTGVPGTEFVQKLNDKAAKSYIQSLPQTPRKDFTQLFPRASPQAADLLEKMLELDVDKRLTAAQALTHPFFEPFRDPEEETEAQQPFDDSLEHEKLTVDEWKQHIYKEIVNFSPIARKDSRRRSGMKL
BRAF (human), P15056 [V600E], sequence (P15056 whole entry V600E, looked up): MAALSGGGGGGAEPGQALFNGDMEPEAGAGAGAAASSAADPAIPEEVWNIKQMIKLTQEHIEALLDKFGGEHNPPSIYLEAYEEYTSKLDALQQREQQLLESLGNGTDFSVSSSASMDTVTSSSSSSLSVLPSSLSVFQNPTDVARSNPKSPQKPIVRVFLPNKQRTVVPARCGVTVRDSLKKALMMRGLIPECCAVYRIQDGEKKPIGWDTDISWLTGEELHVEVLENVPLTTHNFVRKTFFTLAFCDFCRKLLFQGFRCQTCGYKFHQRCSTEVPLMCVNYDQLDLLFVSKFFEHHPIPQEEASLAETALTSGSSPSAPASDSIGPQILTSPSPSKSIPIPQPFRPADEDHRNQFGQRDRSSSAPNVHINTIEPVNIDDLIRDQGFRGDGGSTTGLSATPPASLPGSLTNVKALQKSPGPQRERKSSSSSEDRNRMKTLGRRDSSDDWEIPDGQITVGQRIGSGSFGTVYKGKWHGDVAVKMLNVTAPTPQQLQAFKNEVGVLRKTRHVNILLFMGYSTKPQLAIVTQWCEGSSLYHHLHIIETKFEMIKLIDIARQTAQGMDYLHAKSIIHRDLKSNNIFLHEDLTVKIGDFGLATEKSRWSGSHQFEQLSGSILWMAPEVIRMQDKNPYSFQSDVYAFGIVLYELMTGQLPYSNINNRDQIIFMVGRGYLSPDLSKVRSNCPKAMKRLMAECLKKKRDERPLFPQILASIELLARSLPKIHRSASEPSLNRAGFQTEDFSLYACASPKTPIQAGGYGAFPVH
TNNI3K (human), sequence (Q59H18 whole entry, looked up): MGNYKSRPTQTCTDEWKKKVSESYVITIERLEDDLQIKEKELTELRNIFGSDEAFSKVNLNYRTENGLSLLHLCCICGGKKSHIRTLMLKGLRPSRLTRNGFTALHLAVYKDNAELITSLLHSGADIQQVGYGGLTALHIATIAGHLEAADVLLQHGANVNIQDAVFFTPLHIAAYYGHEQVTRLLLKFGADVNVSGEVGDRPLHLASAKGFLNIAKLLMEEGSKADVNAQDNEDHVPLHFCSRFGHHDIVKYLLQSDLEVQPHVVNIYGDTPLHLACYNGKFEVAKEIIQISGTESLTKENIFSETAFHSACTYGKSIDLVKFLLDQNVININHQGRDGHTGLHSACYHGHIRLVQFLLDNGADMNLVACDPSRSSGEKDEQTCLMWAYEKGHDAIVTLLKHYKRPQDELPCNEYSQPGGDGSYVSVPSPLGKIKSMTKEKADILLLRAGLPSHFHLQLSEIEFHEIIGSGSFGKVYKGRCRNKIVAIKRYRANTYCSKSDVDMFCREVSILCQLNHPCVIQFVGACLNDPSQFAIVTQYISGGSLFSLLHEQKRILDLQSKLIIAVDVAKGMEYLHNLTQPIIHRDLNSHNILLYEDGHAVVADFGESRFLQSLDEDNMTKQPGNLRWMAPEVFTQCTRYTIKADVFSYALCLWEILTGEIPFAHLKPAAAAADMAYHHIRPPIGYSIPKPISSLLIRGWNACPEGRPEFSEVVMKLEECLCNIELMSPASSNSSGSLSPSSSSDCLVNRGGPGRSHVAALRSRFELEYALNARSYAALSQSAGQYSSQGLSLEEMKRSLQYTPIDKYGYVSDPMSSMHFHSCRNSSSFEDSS
PIK3CA (human), P42336 [E542K], sequence (P42336 whole entry E542K, looked up): as the sequence (P42336 whole entry Q546K, looked up) above, with E542K, K546Q counted along it
PIM1 (human), sequence (P11309 whole entry, looked up): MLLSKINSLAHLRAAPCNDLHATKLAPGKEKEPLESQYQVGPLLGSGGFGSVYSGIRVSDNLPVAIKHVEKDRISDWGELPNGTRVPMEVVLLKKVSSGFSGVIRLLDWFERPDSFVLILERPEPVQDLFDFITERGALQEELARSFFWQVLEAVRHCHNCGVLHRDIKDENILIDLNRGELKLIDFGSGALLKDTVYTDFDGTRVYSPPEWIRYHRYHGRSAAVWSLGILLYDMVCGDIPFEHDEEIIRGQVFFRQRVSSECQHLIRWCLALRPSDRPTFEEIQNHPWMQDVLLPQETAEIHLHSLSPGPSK
EPHA7 (human), sequence (Q15375 whole entry, looked up): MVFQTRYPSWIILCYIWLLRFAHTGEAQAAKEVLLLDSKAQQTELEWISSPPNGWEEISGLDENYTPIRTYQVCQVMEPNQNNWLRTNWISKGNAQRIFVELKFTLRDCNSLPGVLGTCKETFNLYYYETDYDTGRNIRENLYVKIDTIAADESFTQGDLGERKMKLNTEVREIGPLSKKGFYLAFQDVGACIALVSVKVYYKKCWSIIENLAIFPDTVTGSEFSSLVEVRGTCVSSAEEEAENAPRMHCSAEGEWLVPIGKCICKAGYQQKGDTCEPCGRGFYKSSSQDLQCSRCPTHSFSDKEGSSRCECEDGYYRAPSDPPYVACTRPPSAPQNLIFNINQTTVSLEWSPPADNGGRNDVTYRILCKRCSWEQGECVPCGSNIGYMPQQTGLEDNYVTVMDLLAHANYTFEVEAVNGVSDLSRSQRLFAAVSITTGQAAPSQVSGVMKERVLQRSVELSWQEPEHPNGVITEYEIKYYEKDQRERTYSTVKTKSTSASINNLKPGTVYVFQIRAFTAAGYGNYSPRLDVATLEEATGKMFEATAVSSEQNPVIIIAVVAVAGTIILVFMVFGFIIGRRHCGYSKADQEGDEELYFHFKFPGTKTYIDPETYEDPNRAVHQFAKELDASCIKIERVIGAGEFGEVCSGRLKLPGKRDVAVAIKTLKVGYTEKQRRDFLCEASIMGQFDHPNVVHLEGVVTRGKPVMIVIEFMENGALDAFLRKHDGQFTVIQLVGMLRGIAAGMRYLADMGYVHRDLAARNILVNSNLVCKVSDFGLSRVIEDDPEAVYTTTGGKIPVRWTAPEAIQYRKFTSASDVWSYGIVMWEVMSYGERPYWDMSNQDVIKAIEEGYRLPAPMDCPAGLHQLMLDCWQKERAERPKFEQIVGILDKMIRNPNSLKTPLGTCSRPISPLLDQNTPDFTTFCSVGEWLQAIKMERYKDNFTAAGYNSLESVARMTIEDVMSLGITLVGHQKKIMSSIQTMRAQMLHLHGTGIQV
PIK3CA (human), P42336 [E545K], sequence (P42336 whole entry E545K, looked up): as the sequence (P42336 whole entry Q546K, looked up) above, with E545K, K546Q counted along it

- Kd [1]: 0.0065 µM
- Kd [2]: 0.0038 µM
- Kd [3]: 8.4 µM
- Kd [4]: 0.014 µM
- Kd [5]: 16 µM
- Kd [6]: 0.43 µM
- Kd [7]: 1.1 µM
- Kd [8]: 0.043 µM
- Kd [9]: 8.7 µM
- Kd [10]: 16 µM
- Kd [11]: 27 µM
- Kd [12]: 0.14 µM
- Kd [13]: 0.071 µM
- Kd [14]: 0.15 µM
- Kd [15]: 0.086 µM
- Kd [16]: 0.092 µM
- Kd [17]: 0.11 µM
- Kd [18]: 0.0042 µM
- Kd [19]: 0.034 µM
- Kd [20]: 31 µM
- Kd [21]: 14 µM
- Kd [22]: 18 µM
- Kd [23]: 0.39 µM
- Kd [24]: 27 µM
- Kd [25]: 6.8 µM
- Kd [26]: 27 µM
- Kd [27]: 29 µM
- Kd [28]: 28 µM
- Kd [29]: 29 µM
- Kd [30]: 26 µM
- Kd [31]: 20 µM
- Kd [32]: 7.5 µM
- Kd [33]: 37 µM
- Kd [34]: 1.9 µM
- Kd [35]: 37 µM
- Kd [36]: 2.1 µM
- Kd [37]: 1.6 µM
- Kd [38]: 0.066 µM
- Kd [39]: 0.028 µM
- Kd [40]: 0.0037 µM
SMILES: COc1cc2ncnc(Oc3cccc(NC(=O)Nc4cc(C(C)(C)C(F)(F)F)on4)c3)c2cc1OC
